Measurements: EP4585599A1, “NITROGEN-CONTAINING FUSED RING COMPOUND, INTERMEDIATE THEREOF, PREPARATION METHOD THEREFOR AND USE THEREOF” (Hangzhou Synrx Therapeutics Biomedical Technology Co., Ltd., priority 2022, dated 2024)
In brackets after ≈: the same amount, converted by molar mass. Several values for one entry are separate records, joined by “and”; a condition that tells them apart may be missing. Equal values may be shown once. Read-outs that look alike come from different tables or passages of the source.

Experiments:
[1] = molecular target: T1, helicase domain of the Pol θ protein (Homo sapiens, UniProt O75417); test: Biochemical Activity Assay (ADP Glo Assay) of Pol θ inhibitor, ATPase activity
T1 construct: The helicase domain of the Pol θ protein was purified from insect protein expression system; made in house; host or cells: insect protein expression system
T1 sequence (O75417 102-554 limits assumed): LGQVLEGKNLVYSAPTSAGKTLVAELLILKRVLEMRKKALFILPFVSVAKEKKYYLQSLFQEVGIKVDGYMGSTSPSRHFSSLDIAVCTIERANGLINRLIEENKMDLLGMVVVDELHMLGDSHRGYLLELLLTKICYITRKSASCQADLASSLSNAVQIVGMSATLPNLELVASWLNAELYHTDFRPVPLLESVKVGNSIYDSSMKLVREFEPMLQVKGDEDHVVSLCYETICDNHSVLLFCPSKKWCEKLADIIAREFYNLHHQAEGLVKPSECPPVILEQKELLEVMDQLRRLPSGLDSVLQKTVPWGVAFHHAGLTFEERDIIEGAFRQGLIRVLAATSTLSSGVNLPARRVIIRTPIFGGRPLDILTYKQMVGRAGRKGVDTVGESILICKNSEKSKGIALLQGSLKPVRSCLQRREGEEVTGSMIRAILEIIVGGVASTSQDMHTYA

Solubility assay = settings: phosphate buffer, pH 7.4, aqueous buffer, kinetic from dmso stock
Procedure: 1) Prepare 0.1 M Na2PO4 buffer (pH 7.4): 11 g of Na2HPO4 (FW: 141.96) and 3.5 g of NaH2PO4_2H2O (FW: 156.03) were added to 1L of Mili-Q water, with pH adjusted to 7.4 using phosphoric acid or sodium hydroxide. 2) 10 µL of the compound to be tested (concentration: 10 mM in DMSO) was added to 990 µL of Na2PO4 buffer (final DMSO concentration: 1%) prepared in Step 1). 3) The sample tube was shaken at room temperature for 2 hours (1000 rpm/min). 4) Prepare the calibration curve: a) Prepare 300 µM spiking solution (SS): 6 µL (10 mM in DMSO) of the stock solution of the compound to be tested was added to 194 µL of MeOH/ACN (4:1); and b) Draw the standard curve.
5) The samples were centrifuged (10 min, 12,000 rpm) to precipitate insoluble particles. The supernatant was filtered with a 0.22 µm filter membrane, and then transferred to a new centrifuge tube. 6) The supernatant was diluted 10-fold with 100 mM buffer. The supernatant (10 µL) was added to the buffer (100 mM, 90 µL) and diluted 10-fold. 7) The sample was prepared under LC-MS/MS (API 4000) detection.
10 µL of the sample (10-fold dilution) and a standard curve sample were added to 400 µL of (MeOH: ACN=1:1) solution, and detected on the instrument, and the solubility value was calculated according to the standard curve.

cells = settings: Homo sapiens, DLD-1, 240 h
in vitro = settings: mouse, microsomes, pH 7.4
Procedure: a) Phosphate buffer solution (PBS): 100 mM, pH=7.4±0.1.
73.21 g of dipotassium phosphate trihydrate K2HPO4·3H2O (MW=228.22) and 10.78 g of potassium dihydrogen phosphate KH2PO4 (MW=136.09) were dissolved in 4000 mL of pure water, with pH adjusted to 7.4 ± 0.1 using phosphoric acid or potassium hydroxide.
b) Microsome working solution: 1.0 mg/mL.
The purchased mouse liver microsomes (IPHASE, Cat. No.: 0121E1.01, Lot. No.: 22F001) were of 20 mg/mL (10 mg, 0.5 mL), with 225 µL added to 4275 µL of PBS solution to prepare 1.0 mg/mL microsome working solution.
(Note whether the precipitation occurred) • III, 200 µL of the 40 mM NADPH stock solution, 2.0 mL of the 12 mM magnesium chloride stock solution, and 1.80 mL of the PBS solution were used to prepare the working solution of the NADPH regeneration system, containing the 2 mM NADPH solution and the 6 mM magnesium chloride mixture.
d) Stop solution: containing 200 ng/mL tolbutamide acetonitrile solution. • I, 6.006 mg of tolbutamide (MV=270.35, 99.9%) solids were weighed, and 30 mL of acetonitrile was added to prepare the 200 µg/mL of tolbutamide stock solution. • II, 500 mL of acetonitrile was added to 500 µL of the 200 µg/mL tolbutamide stock solution to obtain the tolbutamide acetonitrile solution with a concentration of 200 ng/mL.
e) Test sample/reference working solution: 100 µM test sample/reference working solution • I, 1 mL of 1.0 mg/mL testosterone (MV=288.42) solution was purchased, and 155.8 µL of ACN was added to prepare a testosterone stock solution with a concentration of 3 mM. • II, 1450 µL of acetonitrile was added to 50 µL of the 3 mM testosterone stock solution to prepare the 100 µM testosterone working solution. • III, 6.98 mg of propafenone hydrochloride was weighed, and 1.8433 mL of acetonitrile was added to dissolve the propafenone hydrochloride; and 5.67 mg of diclofenac sodium was weighed, and 1.783 mL of acetonitrile was added to dissolve the diclofenac sodium. 10 mM propafenone stock solution and 10 mM diclofenac stock solution were prepared respectively. • IV, 10 µL of the propafenone stock solution and 10 mL of the diclofenac stock solution were each added with 990 µL of acetonitrile to prepare 100 µM propafenone working solution and 100 µM diclofenac working solutions.
• a) 8 incubation plates were prepared, named T0, T5, T15, T30, T45, T60, Blank60 and NCF60, respectively. • b) 100 µL of microsome working solution was added to each of T0, T5, T15, T30, T45, T60, Blank60 and NCF60; 2 µL of the test (reference) working solution was added to each of T0, T5, T15, T30, T45, T60 and NCF60; and 2 µL of acetonitrile was added to Blank60. • c) T5, T15, T30, T45, T60, and Blank60 were pre-incubated in a 37°C water bath for 10 minutes. • d) 600 µL of the stop solution was added to the sample T0 to stop the reaction; and 98 µL of phosphate buffer solution (PBS) was added to NCF60, and NCF60 samples without the NADPH regeneration system were taken as negative control. • e) 98 µL of the working solution of the NADPH regeneration system was supplemented to the sample T0 that is stopped in the previous step; and after pre-incubation, 98 µL of the working solution of the NADPH regeneration system was added to each of T5, T15, T30, T45, T60, and Blank60 to initiate the reaction.

[2] = Mouse PK assay after oral administration; settings: for MRT / half-life / bioavailability: male, ICR, mouse, po; for MRT / half-life / Area under curve (0-t; hr * ng/mL) / Peak concentration / bioavailability: plasma; for Time to peak / Area under curve (0-t; hr * ng/mL) / Peak concentration: mice, oral
Procedure: The objective of this experiment was to study the pharmacokinetics of the test compound in ICR mice (male, 18-22 g, 4-6 weeks old, Beijing Vital River Laboratory Animal Technology Co., Ltd.) after oral administration. The specific experimental procedures were as follows: • 1) The compound was dissolved in 5% DMSO + 40% PEG + 20% (10% TPGS) in water + 35% water at a concentration of 0.5 mg/mL, and then administered orally (5 mL/Kg); and • 2) Blood samples were collected, with 0.03 mL collected at 0.25 h, 0.5 h, 1 h, 2 h, 4 h, 8 h, and 24 h, and EDTA-K2 was added. […] The blood was centrifuged for 5 min at 4000 g in a centrifuge at 4°C to collect plasma. Plasma samples were aliquoted into clean polyethylene microcentrifuge tubes and then stored in a freezer at -75 ± 15°C before analysis; and • 3) Samples were analyzed, and the concentration of the compound in each plasma sample was analyzed by LC-MS/MS. For plasma measurements, pharmacokinetic parameters were calculated using WinNonlin (PhoenixTM, version 8.3) or other similar software.

[3] = read-out: Cell viability assay IC50
[4] = ADP-Glo assay, ATPase activity of Pol θ helicase domain, ssDNA substrate, read-out: Biochemical assay IC50
[5] = ADP-Glo, ssDNA substrate, 60 min at room temperature, read-out: Biochemical assay IC50
[6] = read-out: Cell viability assay IC50 (nM), CTG assay, CellTiter Glo, read on Day 10, cell line not given
[7] = read-out: Cell viability assay IC50 (nM), CTG on Day 10, cell line not given (method: DLD1 and DLD1^-/- cells)
[8] = read-out: Cell viability assay IC50 (nM)
[9] = CTG on Day 10, cell line not given (method: DLD1 and DLD1^-/- cells)
[10] = Biochemical assay IC50 (nM), ADP-Glo assay, ATPase activity of Pol θ helicase domain, ssDNA substrate
[11] = Biochemical assay IC50 (nM), ADP-Glo, ssDNA substrate, 60 min at room temperature
[12] = read-out: Biochemical assay IC50

Structure (SMILES): COc1ccc(Cl)cc1-c1cc(C)ncc1C(=O)Nc1nc2ncc(-c3ccc(C#N)cc3)nc2s1 [Comparative Example 1, reference compound]
- IC50 [1, 4]: 6.91 nM
- solubility at 2 h (Solubility assay): 2.35 µM (≈ 1.21 µg/mL)

Structure (SMILES): COc1cnc(Cl)cc1-c1cc(C)ncc1C(=O)Nc1nc2cnc(C3=CCC(O)CC3)cc2s1 (stereo not shown) [Example 11]
- IC50 [1, 4]: 3.11 nM
- IC50 [1, 5]: < 50 nM
- IC50 (cells; [6]): 11.2 nM
- IC50 (cells; [7]): < 100 nM
- half-life at 1 µM (in vitro): 3.75 h
- solubility at 2 h (Solubility assay): 76.4 µM (≈ 38.8 µg/mL)
- MRT ([2]; 25 mg/kg): 3.15 h
- half-life ([2]; 25 mg/kg): 2.19 h
- Time to peak ([2]; administration dose 25 mg/kg): 0.83 h
- Area under curve (0-t; hr * ng/mL) ([2]; administration dose 25 mg/kg): 26.324 µg·h/mL
- Peak concentration ([2]; administration dose 25 mg/kg): 7407 ng/mL

Structure (SMILES): COc1cnc(Cl)cc1-c1cc(C)ncc1C(=O)Nc1nc2ncc([C@H]3CC[C@@H](O)CC3)cc2s1 [Example 26, 2'-chloro-N-(6-((1s, 4s)-4-hydroxycyclohexyl)thiazolo[4,5-b]pyridin-2-yl)-5'-methoxy-6-methyl-[4,4'-bipyridine]-3-carboxamide]
- IC50 ([1]; Biochemical assay IC50 (nM)): < 50 nM and 5.69 nM
- IC50 [3]: 158 nM
- IC50 (cells; [8]): 100 to 500 nM

Structure (SMILES): COc1cnc(Cl)cc1-c1cc(C)ncc1C(=O)Nc1nc2ncc([C@H]3CC[C@H](O)CC3)cc2s1 [Example 27, 2'-chloro-N-(6-((1r, 4r)-4-hydroxycyclohexyl)thiazolo[4,5-b]pyridin-2-yl)-5'-methoxy-6-methyl-[4,4'-bipyridine]-3-carboxamide]
- IC50 ([1]; Biochemical assay IC50 (nM)): < 50 nM and 10.3 nM
- IC50 [3]: 736 nM
- IC50 (cells; [8]): 500 to 1000 nM

Structure (SMILES): COc1cnc(Cl)cc1-c1cc(C)ncc1C(=O)Nc1nc2ccc([C@H]3CC[C@@H](O)CC3)nc2s1 [Example 28]
- IC50 [1, 4]: 12.1 nM
- IC50 [1, 5]: < 50 nM
- IC50 [3]: 178 nM
- IC50 (cells; [8]): 100 to 500 nM

Structure (SMILES): COc1cnc(Cl)cc1-c1cnccc1C(=O)Nc1nc2ccc([C@H]3CC[C@@H](O)CC3)nc2s1 [Example 33]
- IC50 [1, 4]: 24.9 nM
- IC50 [1, 5]: < 50 nM
- IC50 [3]: 171 nM
- IC50 (cells; [8]): 100 to 500 nM

Structure (SMILES): COc1cnc(Cl)cc1-c1cc(C)ncc1C(=O)Nc1nc2c(s1)CNCC2 [Example 41, 2'-chloro-5'-methoxy-6-methyl-N-(4,5,6,7-tetrahydrothiazol[5,4-c]pyridin-2-yl)-[4,4'-bipyridine]-3-carboxamide]
- IC50 [1, 4]: 1240 nM
- IC50 [1, 5]: > 500 nM
- IC50 [3, 9]: > 1000 nM

Structure (SMILES): COc1cnc(Cl)cc1-c1cc(C)ncc1C(=O)Nc1nc2c(s1)CN(C1CCC(O)CC1)CC2 (stereo not shown) [Example 42, 2'-chloro-N-(5-(4-hydroxycyclohexyl)-4,5,6,7-tetrahydrothiazol[5,4-c]pyridin-2-yl)-5'-m ethoxy-6-methyl-[4,4'-bipyridine]-3-carboxamide]
- IC50 [1, 4]: 200 nM
- IC50 [1, 5]: 200 to 500 nM
- IC50 [3, 9]: > 1000 nM

Structure (SMILES): COc1cnc(Cl)cc1-c1cc(C)ncc1C(=O)Nc1nc2ccc(N3CCOCC3)cc2s1 [Example 45, 2-chloro-5-methoxy-6-methyl-N-(6-morpholinylbenzothiazol-2-yl)-4, 4'-bipyridin-3-car boxamide]
- IC50 [1, 10]: 25.4 nM
- IC50 [1, 11]: < 50 nM
- IC50 [3]: 141 nM
- IC50 (cells; [8]): 100 to 500 nM

Structure (SMILES): COc1cnc(Cl)c(F)c1-c1cc(C)ncc1C(=O)Nc1nc2c(s1)CN(C(=O)C1CCOC1)CC2 (stereo not shown) [Example 54, 2'-chloro-3'-fluoro-5'-methoxy-6-methyl-N-(5-(tetrahydrofuran-3-carbonyl)-4,5,6,7-tetrahydrothiazol[5,4-c]pyridin-2-yl)-[4,4'-bipyridine]-3-carboxamide]
- IC50 ([1]; Biochemical assay IC50 (nM)): < 50 nM and 40.6 nM
- IC50 [3]: 794 nM
- IC50 (cells; [8]): 500 to 1000 nM

Structure (SMILES): COc1cnc(Cl)cc1-c1cc2cnc(C)n2cc1C(=O)Nc1nc2ccc(C3=CCC(O)CC3)nc2s1 (stereo not shown) [Example 55, 7-(2-chloro-5-methoxypyridin-4-yl)-N-(5-(4-hydroxycyclohex-1-en-1-yl)thiazol[5,4-b]pyridin-2-yl)-3-methylimidazol[1,5-a]pyridin-6-carboxamide]
- IC50 ([1]; Biochemical assay IC50 (nM)): < 50 nM and 28.7 nM
- IC50 [3]: 112 nM
- IC50 (cells; [8]): 100 to 500 nM

Structure (SMILES): COc1cnc(Cl)cc1-c1cc(C)ncc1C(=O)Nc1nc2ncc(N3CCC(O)CC3)nc2s1 [Example 70]
- IC50 [1, 4]: 2.73 nM
- IC50 [1, 5]: < 50 nM
- IC50 (cells; [6]): 14.2 nM
- IC50 (cells; [7]): < 100 nM
- half-life at 1 µM (in vitro): 8.88 h
- solubility at 2 h (Solubility assay): 70.6 µM (≈ 36.1 µg/mL)
- MRT ([2]; 100 mg/kg): 2.2 h
- half-life ([2]; 100 mg/kg): 2.91 h
- Time to peak ([2]; administration dose 100 mg/kg): 0.5 h
- Area under curve (0-t; hr * ng/mL) ([2]; administration dose 100 mg/kg): 60.434 µg·h/mL
- Peak concentration ([2]; administration dose 100 mg/kg): 22767 ng/mL

Structure (SMILES): COc1cnc(Cl)cc1-c1cc(C)ncc1C(=O)Nc1nc2cnc(-c3c(C)cnn3C)cc2s1 [Example 87]
- IC50 [1, 4]: 1.91 nM
- IC50 [1, 5]: < 50 nM
- IC50 (cells; [6]): 6.81 nM
- IC50 (cells; [7]): < 100 nM
- half-life at 1 µM (in vitro): 14.4 h
- solubility at 2 h (Solubility assay): 79.7 µM (≈ 40.3 µg/mL)
- MRT ([2]; 100 mg/kg): 3.45 h
- half-life ([2]; 100 mg/kg): 2.12 h
- Time to peak ([2]; administration dose 100 mg/kg): 0.25 h
- Area under curve (0-t; hr * ng/mL) ([2]; administration dose 100 mg/kg): 300.735 µg·h/mL
- Peak concentration ([2]; administration dose 100 mg/kg): 74833 ng/mL

Structure (SMILES): COc1cnc(Cl)cc1-c1cc(C)ncc1C(=O)Nc1nn2cc(-c3ccccn3)nc2s1 [Example 97, 2'-chloro-5'-methoxy-6-methyl-N-(6-(pyridin-2-vyl)imidazol[2,1-b][1,3,4]thiadiazol-2-yl)-[4,4'-bipyridine]-3-carboxamide]
- IC50 ([1]; Biochemical assay IC50 (nM)): < 50 nM and 26.4 nM
- IC50 [3]: 1210 nM
- IC50 (cells; [8]): > 1000 nM

Structure (SMILES): [2H]C([2H])([2H])c1cc(-c2cc(Cl)ncc2OC)c(C(=O)Nc2nc3ccc(N4CCC(O)CC4)nc3s2)cn1 [Example 109]
- IC50 [1, 10]: 6.71 nM
- IC50 [1, 11]: < 50 nM
- IC50 [3]: 147 nM
- IC50 (cells; [8]): < 100 nM

Structure (SMILES): COc1cnc(Cl)cc1-c1cc(C)ncc1C(=O)Nc1nc2cnc(-c3c(C)nnn3C)cc2s1 [Example 175, 2'-chloro-N-(6-(1,4-dimethyl-1H-1,2,3-triazol-5-yl)thiazolo[4,5-c]pyridin-2-yl)-5'-methoxy-6-methyl-[4,4'-bipyridine]-3-carboxamide]
- IC50 [1, 4]: 1.84 nM
- IC50 (cells; [6]): 10 nM
- half-life at 1 µM (in vitro): 10.5 h
- solubility at 2 h (Solubility assay): 4.61 µM (≈ 2.34 µg/mL)
- MRT ([2]; 30 mg/kg): 4.58 h
- bioavailability ([2]; 30 mg/kg): 151%
- half-life ([2]; 30 mg/kg): 2.68 h
- Time to peak ([2]; administration dose 30 mg/kg): 1.67 h
- Area under curve (0-t; hr * ng/mL) ([2]; administration dose 30 mg/kg): 293.209 µg·h/mL
- Peak concentration ([2]; administration dose 30 mg/kg): 42933 ng/mL

Structure (SMILES): COc1cnc(C(F)F)cc1-c1cc(C)ncc1C(=O)Nc1nc2cnc(-c3c(C)noc3C)cc2s1 [Example 207]
- IC50 [1, 4]: 3.41 nM
- IC50 (cells; [6]): 8.57 nM
- half-life at 1 µM (in vitro): 14.4 h
- solubility at 2 h (Solubility assay): 58.7 µM (≈ 30.7 µg/mL)
- MRT ([2]; 30 mg/kg): 5.13 h
- bioavailability ([2]; 30 mg/kg): 311%
- half-life ([2]; 30 mg/kg): 1.97 h
- Time to peak ([2]; administration dose 30 mg/kg): 1.67 h
- Area under curve (0-t; hr * ng/mL) ([2]; administration dose 30 mg/kg): 581.387 µg·h/mL
- Peak concentration ([2]; administration dose 30 mg/kg): 52444 ng/mL

Structure (SMILES): COc1cnc(Cl)cc1-c1cc(C)ncc1C(=O)Nc1nc2cc(F)c(-c3c(C)nnn3C)nc2s1 [Example 227, 2'-chloro-N-(5-(1,4-dimethyl-1H-1,2,3-triazol-5-yl)-6-fluorothiazolo[5,4-b]pyridin-2-yl) -5'-methoxy-6-methyl-[4,4'-bipyridine]-3-carboxamide]
- IC50 [1, 4]: 20.7 nM
- IC50 (cells; [6]): 112 nM

Structure (SMILES): COc1cnc(Cl)c(F)c1-c1cc(C)ncc1C(=O)Nc1nc2ccccc2s1 [Examples 39]
- IC50 [1, 12]: < 50 nM and 8.57 nM
- IC50 [3]: 108 nM
- IC50 (cells; [8]): 100 to 500 nM

Structure (SMILES): COc1cnc(Cl)cc1-c1cc(C)ncc1C(=O)Nc1nc2ccc(C3(O)CCC(O)CC3)cc2s1 (stereo not shown) [Examples 89]
- IC50 [1, 12]: < 50 nM and 36.7 nM
- IC50 [3]: 171 nM
- IC50 (cells; [8]): 100 to 500 nM
